Results from US20110038885A1, “CHEMOKINE ANALOGS” (priority 2007, published 2011).
Bridge positions count the residues as written; N and C are the ends. Square brackets hold non-standard residues; d marks the D form. Peptide text beside a SMILES is read from it. * marks the point of attachment. Lauroyl = CCCCCCCCCCCC(=O)*

Tests used:
[1] = Half-life in rat plasma in vitro; type: in vitro ADME; conditions: for half-life: read-out: T ½ rat plasma in vitro (converted)
MCP-1 = assay: In vitro chemotaxis (trans-well migration) v MCP-1; type: cell-based, human
Outline: (§1)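 Human THP-1 monocytes (10^4-10^6) with agent at varying concentrations in upper trans-well chamber; IL-8 or MCP-1 in lower chamber at a migration-inducing concentration, 37° C for e.g. 4 hours. Migrated cells quantified by MTT (595 nm) against a THP-1 standard curve; cytotoxicity and non-chemokine chemoattractant controls run.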

IL-8 = assay: In vitro chemotaxis, inhibition v IL-8; type: cell-based, human; parameters: concentration or dose not given beside the values
Outline: as §1

Half-life in rat in vivo = conditions: read-out: T ½ rat in vivo

Row | Molecule | half-life [1] [h] | EC50 (MCP-1) [nM] | v IL-8 inhibition (%) (IL-8) | half-life (Half-life in rat in vivo) [h] | T ½ rat plasma in vitro [1] [h]
1 | CC(C)[C@H](NC(=O)[C@H](Cc1c[nH]c2ccccc12)NC(=O)OC(C)(C)C)C(=O)NC1CCC(=O)NC1=O (stereo partly drawn) [Example 164, BOC-Trp-Val-α-aminoglutaramide] | 11.1 | 20 | 104.4 | 0.55 | 
2 | CC[C@@H](C)[C@H]1NC(=O)[C@@H](CCC(N)=O)NC(=O)[C@H](N)CSSC[C@H](C(N)=O)NC(=O)[C@@H](CCCCN)NC(=O)[C@@H](Cc2c[nH]c3ccccc23)NC1=O [Example 183, c(D-Cys-D-Gln-D-Ile-D-Trp-D-Lys-D-Cys)-NH2] (H-[dC][dQ][dI][dW][dK][dC]-NH2; disulfide 1-6) | > 24 | 20 |  |  | 
3 | CC(C)(NC(=O)[C@@H](N)Cc1c[nH]c2ccccc12)C(=O)NC1CCC(=O)NC1=O (stereo partly drawn) [Example 188, Trp-Aib-aminoglutarimide] | 3.1 | 66 |  |  | 
4 | CC(C)[C@@H](CC(=O)NC1CCC(=O)NC1=O)NC(=O)[C@H](Cc1c[nH]c2ccccc12)NC(=O)OC(C)(C)C (stereo partly drawn) [Example 184, BOC-Trp-βhVal-α-aminoglutarimide] | 1.3 | 10 |  |  | 
5 | BOC-Tcc-βAla-α-aminoglutaramide [Example 171] |  | 602 | 84.6 |  | 8.5
6 | CC(C)(C)OC(=O)N[C@@H](Cc1c[nH]c2ccccc12)C(=O)NCC(=O)NC1CCC(=O)NC1=O (stereo partly drawn) [Example 163, BOC-Trp-Gly-α-aminoglutaramide] | 6.1 | 20 | 105.7 |  | 
7 | CC[C@H](C)[C@@H]1NC(=O)[C@H](Cc2c[nH]c3ccccc23)NC(=O)[C@H](CCCCN)NC(=O)[C@H](CCC(N)=O)NC(=O)[C@H](CCCCN)NC(=O)[C@@H]2CCCN2C(=O)[C@H](CC(=O)O)NC(=O)[C@H](CC(C)C)NC(=O)[C@@H](N)CSSC[C@@H](C(N)=O)NC(=O)[C@H](CCC(N)=O)NC1=O [Example 33, c(Cys-Leu-Asp-Pro-Lys-Gln-Lys-Trp-Ile-Gln-Cys)-NH2] (H-CLDPKQKWIQC-NH2; disulfide 1-11) | > 15 | 20 | 90.0 | 0.1 | 
8 | N[C@@H](Cc1c[nH]c2ccccc12)C(=O)NCCC(=O)NC1CCC(=O)NC1=O (stereo partly drawn) [Example 182, Trp-βAla-α-aminoglutaramide] | 0.9 | 6 |  |  | 
9 | CC(C)OC(=O)N[C@@H](Cc1c[nH]c2ccccc12)C(=O)NCCC(=O)NC1CCC(=O)NC1=O (stereo partly drawn) [Example 179, N-(isopropoxycarbonyl)-Trp-βAla-α-aminoglutarimide] | 9.1 |  |  |  | 
10 | CCCCCCCCCCCC(=O)NCCCC[C@H](N)C(=O)N[C@@H](CC(=O)O)C(=O)N[C@H]1CSSC[C@@H](C(N)=O)NC(=O)[C@H](CCC(N)=O)NC(=O)[C@H]([C@@H](C)CC)NC(=O)[C@H](Cc2c[nH]c3ccccc23)NC(=O)[C@H](CCCCN)NC(=O)[C@H](CCC(N)=O)NC(=O)[C@H](CCCCN)NC(=O)[C@@H]2CCCN2C(=O)[C@H](CC(=O)O)NC(=O)[C@H](CC(C)C)NC1=O [Example 170, Lys(Nε-dodecanoyl)-Asp-c(Cys-Leu-Asp-Pro-Lys-Gln-Lys-Trp-Ile-Gln-Cys)-NH2] (H-K(Lauroyl)DCLDPKQKWIQC-NH2; disulfide 3-13) |  | > 1000 | −5.1 | 0.0833 | 
11 | CC[C@H](C)[C@@H]1NC(=O)[C@H](Cc2c[nH]c3ccccc23)NC(=O)[C@H](CCCCN)NC(=O)[C@H](CCC(N)=O)NC(=O)[C@H](CCCCN)NC(=O)[C@@H](NC(=O)[C@@H]2CCCN2C(=O)[C@H](CC(=O)O)NC(=O)[C@H](CC(C)C)NC(C)=O)CSSC[C@@H](C(N)=O)NC(=O)[C@H](CCC(N)=O)NC1=O [Example 21, Ac-Leu-Asp-Pro-c(Cys-Lys-Gln-Lys-Trp-Ile-Gln-Cys)-NH2] (Ac-LDPCKQKWIQC-NH2; disulfide 4-11) |  | 7 | 96.3 | 0.367 | 
12 | CC[C@H](C)[C@@H]1NC(=O)[C@H](Cc2c[nH]c3ccccc23)NC(=O)[C@H](CCCCN)NC(=O)[C@@H](NC(=O)[C@H](CCC(N)=O)NC(=O)[C@@H](N)CCCCN)CSSC[C@@H](C(N)=O)NC(=O)[C@H](CCC(N)=O)NC1=O [Example 48, Lys-Gln-c(Cys-Lys-Trp-Ile-Gln-Cys)-NH2] (H-KQCKWIQC-NH2; disulfide 3-8) |  | 8 | 91.9 | < 0.0833 | 
13 | CC[C@H](C)[C@@H]1NC(=O)[C@H](Cc2c[nH]c3ccccc23)NC(=O)[C@@H](CCCCN)NC(=O)[C@H](CCC(N)=O)NC(=O)[C@H](CCCCN)NC(=O)[C@@H]2CCCN2C(=O)[C@H](CC(=O)O)NC(=O)[C@H](CC(C)C)NC(=O)[C@@H](NC(C)=O)CSSC[C@@H](C(N)=O)NC(=O)[C@H](CCC(N)=O)NC1=O [Example 27, Ac-c(Cys-Leu-Asp-Pro-Lys-Gln-D-Lys-Trp-Ile-Gln-Cys)-NH2] (Ac-CLDPKQ[dK]WIQC-NH2; disulfide 1-11) |  | 7 | 91.0 | 0.378 | 
14 | CC[C@H](C)[C@@H]1NC(=O)[C@H](Cc2c[nH]c3ccccc23)NC(=O)[C@H](CCCCN)NC(=O)[C@@H](N)CSSC[C@@H](C(N)=O)NC(=O)[C@H](CCC(N)=O)NC1=O [Example 1, c(Cys-Lys-Trp-Ile-Gln-Cys)-NH2] (H-CKWIQC-NH2; disulfide 1-6) | > 28 | 12 | 86.7 | 0.317 | 
15 | CC(C)(C)OC(=O)N[C@@H](Cc1c[nH]c2ccccc12)C(=O)NCCC(=O)NC1CCC(=O)NC1=O (stereo partly drawn) [Example 165, BOC-Trp-βA1a-α-aminoglutaramide] | 4 | 5 | 111.5 |  | 
